Tests used:
[1] = PK exposure from 10 mg intranasal (IN) zavegepant; assay type: in vivo, human; conditions: 10 mg IN
in vivo = conditions: female, beagle, dog, 50 mg; for AUC(0-t): AUC0-4 hr
[2] = female, beagle, dog, in vivo, 50 mg
human CGRP = human CGRP (Homo sapiens, UniProt O60894+Q16602); conditions: cited from earlier work
[3] = Study BHV3500-103 Treatment B: PK after 50 mg x 1 SoftGel orally; assay type: in vivo, humans; conditions: Study 103, 50 mg SoftGel x 1 oral; for AUC(0-t) / AUC(0-inf) / Cmax / Tmax: human, in vivo, po, 50 mg
Procedure: Single-dose: Study BHV3500-103, PK data after 50 mg×1 (2×25 mg) SoftGel administered orally (Treatment B)

[4] = Study BHV3500-107 Cohort 1: zavegepant 50 mg SoftGel QD PK (fasted Days 1-10, fed Days 11-14); assay type: in vivo, humans; conditions: for Concentration: Cohort 1, 50 mg QD SoftGel, pre-dose
[5] = Phase 2/3 dose-ranging clinical trial of intranasal BHV-3500; assay type: in vivo, human; conditions: intranasal unit doses 5, 10 and 20 mg; treatment of migraine
[6] = Cohort 1, Day 10, 50 mg QD SoftGel oral, fasted, multiple dose, Max
[7] = Cohort 1, Day 10, 50 mg QD SoftGel oral, fasted, multiple dose, Min
[8] = Day 14 (with food, moderate fat meal) vs. Day 10 (fasted), 50 mg QD SoftGel
[9] = Study 107, Cohort 1, Day 1, 50 mg SoftGel single dose, fasted

human CGRP, sequence (Q16602 23-461): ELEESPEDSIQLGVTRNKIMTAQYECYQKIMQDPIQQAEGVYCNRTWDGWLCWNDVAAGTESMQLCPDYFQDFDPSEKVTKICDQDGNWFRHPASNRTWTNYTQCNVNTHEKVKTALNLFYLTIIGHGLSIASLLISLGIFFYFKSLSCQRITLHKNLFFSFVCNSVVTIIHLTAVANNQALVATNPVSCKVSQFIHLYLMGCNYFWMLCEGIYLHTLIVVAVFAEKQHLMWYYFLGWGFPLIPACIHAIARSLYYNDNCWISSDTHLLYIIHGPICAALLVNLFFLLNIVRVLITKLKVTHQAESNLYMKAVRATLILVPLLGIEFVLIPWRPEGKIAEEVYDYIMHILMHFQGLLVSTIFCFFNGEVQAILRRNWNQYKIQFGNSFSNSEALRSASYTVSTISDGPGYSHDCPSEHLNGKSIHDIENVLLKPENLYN
human CGRP, sequence (O60894 27-148): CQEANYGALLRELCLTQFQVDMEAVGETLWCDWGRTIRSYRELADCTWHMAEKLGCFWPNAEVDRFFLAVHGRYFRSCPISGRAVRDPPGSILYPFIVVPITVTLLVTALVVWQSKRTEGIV

Cc1cc(C[C@@H](NC(=O)N2CCC(c3cc4ccccc4[nH]c3=O)CC2)C(=O)N2CCN(C3CCN(C)CC3)CC2)cc2cn[nH]c12 [BHV-3500, (R)-N-(3-(7-methyl-1H-indazol-5-yl)-1-(4-(1-methylpiperidin-4-yl)piperazin-1-yl)-1-oxopropan-2-yl)-4-(2-oxo-1,2-dihydroquinolin-3-yl)piperidine-1-carboxamide] gave an AUC [1] of 33.0 ng·h/mL, an AUC(0-t) (in vivo) of 40.3 ng·h/mL and an AUC(0-t) (in vivo; Median/Average) of 55.1 ng·h/mL. It also gave a Cmax (in vivo; Cmax, Median/Average) of 37 ng/mL, a Tmax (in vivo; Tmax, Median/Average) of 1 h and a half-life (in vivo; t1/2) of 0.54 h. The half-life (in vivo; t1/2, Median/Average) was 0.77 h, the “AUC0-4 hr, Median/Average” value [2] was 44.4 ng·h/mL and the “Cmax, Median/Average” value [2] was 31.7 ng/mL. For the same compound, the “Tmax, Median/Average” value [2] was 0.5 h, the “t1/2, Median/Average” value [2] was 0.71 h and the Ki (human CGRP) was 0.023 nM. For the same compound, the “AUC0-24, Max” value [3] was 59.0 ng·h/mL, the “AUCINF_obs, Max” value [3] was 60.1 ng·h/mL and the “AUCINF_obs, Min” value [3] was 9.21 ng·h/mL. The “Cmax, Max” value [3] was 26.8 ng/mL, the “Cmax, Min” value [3] was 1.86 ng/mL and the “HL_Lambda_z, Geometric Mean” value [3] was 2.17 h. The “HL_Lambda_z, Max” value [3] was 4.74 h, the “HL_Lambda_z, Mean” value [3] was 2.28 h and the “HL_Lambda_z, Median” value [3] was 1.98 h. For the same compound, the “HL_Lambda_z, Min” value [3] was 1.48 h, the “Tmax, Min” value [3] was 0.500 h and the AUC(0-t) ([3]; read-out: AUC0-24, Geometric Mean) was 21 ng·h/mL. It also gave an AUC(0-t) ([3]; read-out: AUC0-24, Mean) of 25.3 ng·h/mL, an AUC(0-t) ([3]; read-out: AUC0-24, Median) of 18.8 ng·h/mL and an AUC(0-inf) ([3]; read-out: AUCINF_obs, Geometric Mean) of 21.5 ng·h/mL. It also gave an AUC(0-inf) ([3]; read-out: AUCINF_obs, Mean) of 25.8 ng·h/mL, an AUC(0-inf) ([3]; read-out: AUCINF_obs, Median) of 19.1 ng·h/mL and a Cmax ([3]; read-out: Cmax, Geometric Mean) of 7.6 ng/mL. The Cmax ([3]; read-out: Cmax, Mean) was 10.8 ng/mL, the Cmax ([3]; read-out: Cmax, Median) was 7.06 ng/mL and the Tmax ([3]; read-out: Tmax, Geometric Mean) was 1.65 h. For the same compound, the Tmax ([3]; read-out: Tmax, Mean) was 1.98 h, the Tmax ([3]; read-out: Tmax, Median) was 1.75 h and the “Pre-dose (C0) concentrations” value ([4]; 50 mg QD SoftGel, Days 1-14) was “largely below the LLOQ”. For the same compound, the Concentration ([4]; Day 6, fasting, Mean) was 0.0936 ng/mL, the Concentration ([4]; Day 10, fasting, Max) was 8.5 ng/mL and the Concentration ([4]; Day 10, fasting, Mean) was 0.0582 ng/mL. It also gave a Concentration ([4]; Day 12, moderate fat meal, Mean) of 0.0764 ng/mL, a Concentration ([4]; Day 12, moderate fat meal, Min) of 0 ng/mL and a Concentration ([4]; Day 14, moderate fat meal, Mean) of 0 ng/mL. It also gave a Concentration ([4]; Day 14, moderate fat meal, Min) of 0 ng/mL, a Cmax ([4]; Cohort 1, Day 1, 50 mg SoftGel oral, fasted, single dose, Max) of 13.8 ng/mL and a Residual area ([4]; Cohort 1, Day 1, 50 mg SoftGel oral, fasted, single dose, Median) of 8.9%. For the same compound, the Cmax ([4]; Cohort 1, Day 1, 50 mg SoftGel oral, fasted, single dose, Min) was 1.42 ng/mL, the Cmax [4, 6] was 46.1 ng/mL and the Tmax [4, 6] was 5 h. For the same compound, the Tmax ([4]; Cohort 1, Day 10, 50 mg QD SoftGel oral, fasted, multiple dose, Mean, listed as Zavegepant) was 2.59 h, the Cmax [4, 7] was 2.27 ng/mL and the Tmax [4, 7] was 1.5 h. For the same compound, the Cmax ([4]; Cohort 1, Day 14, 50 mg QD SoftGel oral, fed (moderate fat meal), multiple dose, Max) was 3.02 ng/mL, the Tmax ([4]; Cohort 1, Day 14, 50 mg QD SoftGel oral, fed (moderate fat meal), multiple dose, Min) was 2.5 h and the “decrease in extent of absorption (AUC) with food” value [4, 8] was roughly 65%. The “decrease in rate of absorption (Cmax) with food” value [4, 8] was roughly 72%, the Tmax ([4]; Day 14, fed (moderate fat meal), multiple dose, 50 mg QD SoftGel, statistic not stated, listed as zavegepant) was 3.6 h and the “AUC0-24, Max” value [4, 9] was 46.3 ng·h/mL. The “AUC0-24, Mean” value [4, 9] was 19.1 ng·h/mL, the “AUC0-24, Min” value [4, 9] was 4.66 ng·h/mL and the “AUCINF_obs, Max” value [4, 9] was 47.8 ng·h/mL. The “AUCINF_obs, Mean” value [4, 9] was 22.6 ng·h/mL, the “AUCINF_obs, Min” value [4, 9] was 9.54 ng·h/mL and the “Cmax, Max” value [4, 9] was 13.8 ng/mL. The “Cmax, Min” value [4, 9] was 1.42 ng/mL, the “HL_Lambda_z, Geometric Mean” value [4, 9] was 2.48 h and the “HL_Lambda_z, Max” value [4, 9] was 5.07 h. The “HL_Lambda_z, Mean” value [4, 9] was 2.66 h, the “HL_Lambda_z, Median” value [4, 9] was 2.19 h and the “HL_Lambda_z, Min” value [4, 9] was 1.62 h. For the same compound, the “Tmax, Max” value [4, 9] was 5.00 h, the “steady state achieved by” value ([4]; concentrations at 8 hours post-dose, multiple dosing 50 mg QD, fasted state) was no more than 3 days and the Cmax ([4]; human, in vivo, oral, 50 mg, Day 10, steady state, fasting, 50 mg QD SoftGel, statistic not stated, range 2.3 to 46.1, read-out: Cmax) was 5.7 ng/mL. For the same compound, the AUC(0-t) ([4]; human, in vivo, oral, 50 mg, Day 10, steady state, fasting, 50 mg QD SoftGel, statistic not stated, range 6.7 to 75.4, read-out: AUC0-24) was 20.4 ng·h/mL, the Tmax ([4]; human, in vivo, oral, 50 mg, Day 10, steady state, fasting, 50 mg QD SoftGel, statistic not stated, read-out: Tmax) was 2 h and the Tmax ([4]; human, in vivo, oral, 50 mg, Day 14, fed (moderate fat meal), multiple dose, 50 mg QD SoftGel, statistic not stated, read-out: Tmax) was 4 h. It also gave a Cmax ([4]; human, in vivo, oral, 50 mg, Day 14, fed (moderate fat meal), 50 mg QD SoftGel, statistic not stated, range 1.0 to 3.0, read-out: Cmax) of 1.6 ng/mL, an AUC(0-t) ([4]; human, in vivo, oral, 50 mg, Day 14, fed (moderate fat meal), 50 mg QD SoftGel, statistic not stated, range 3.7 to 16.6, read-out: AUC0-24) of 7.3 ng·h/mL and an AUC(0-t) ([4]; human, in vivo, oral, 50 mg, Study 107, Cohort 1, Day 1, 50 mg SoftGel single dose, fasted, read-out: AUC0-24, Geometric Mean) of 15.8 ng·h/mL. It also gave an AUC(0-t) ([4]; human, in vivo, oral, 50 mg, Study 107, Cohort 1, Day 1, 50 mg SoftGel single dose, fasted, read-out: AUC0-24, Median) of 16.7 ng·h/mL, an AUC(0-inf) ([4]; human, in vivo, oral, 50 mg, Study 107, Cohort 1, Day 1, 50 mg SoftGel single dose, fasted, read-out: AUCINF_obs, Geometric Mean) of 20 ng·h/mL and an AUC(0-inf) ([4]; human, in vivo, oral, 50 mg, Study 107, Cohort 1, Day 1, 50 mg SoftGel single dose, fasted, read-out: AUCINF_obs, Median) of 20.6 ng·h/mL. It also gave a Cmax ([4]; human, in vivo, oral, 50 mg, Study 107, Cohort 1, Day 1, 50 mg SoftGel single dose, fasted, read-out: Cmax, Geometric Mean) of 5.3 ng/mL, a Cmax ([4]; human, in vivo, oral, 50 mg, Study 107, Cohort 1, Day 1, 50 mg SoftGel single dose, fasted, read-out: Cmax, Mean) of 6.32 ng/mL and a Cmax ([4]; human, in vivo, oral, 50 mg, Study 107, Cohort 1, Day 1, 50 mg SoftGel single dose, fasted, read-out: Cmax, Median) of 5.73 ng/mL. It also gave a Tmax ([4]; human, in vivo, oral, 50 mg, Study 107, Cohort 1, Day 1, 50 mg SoftGel single dose, fasted, read-out: Tmax, Geometric Mean) of 2.18 h, a Tmax ([4]; human, in vivo, oral, 50 mg, Study 107, Cohort 1, Day 1, 50 mg SoftGel single dose, fasted, read-out: Tmax, Mean) of 2.42 h and a Tmax ([4]; human, in vivo, oral, 50 mg, Study 107, Cohort 1, Day 1, 50 mg SoftGel single dose, fasted, read-out: Tmax, Median) of 2.25 h. For the same compound, the Tmax ([4]; human, in vivo, po, 50 mg, Cohort 1, Day 1, 50 mg SoftGel oral, fasted, single dose, Geometric Mean, read-out: Tmax) was 2.18 h, the Cmax ([4]; human, in vivo, po, 50 mg, Cohort 1, Day 1, 50 mg SoftGel oral, fasted, single dose, Mean, read-out: Cmax) was 6.32 ng/mL and the Tmax ([4]; human, in vivo, po, 50 mg, Cohort 1, Day 1, 50 mg SoftGel oral, fasted, single dose, Mean, read-out: Tmax) was 2.42 h. It also gave a Cmax ([4]; human, in vivo, po, 50 mg, Cohort 1, Day 1, 50 mg SoftGel oral, fasted, single dose, Median, read-out: Cmax) of 6.78 ng/mL, a Tmax ([4]; human, in vivo, po, 50 mg, Cohort 1, Day 1, 50 mg SoftGel oral, fasted, single dose, Median, read-out: Tmax) of 2.25 h and a Tmax ([4]; human, in vivo, po, 50 mg, Cohort 1, Day 10, 50 mg QD SoftGel oral, fasted, multiple dose, Geometric Mean, read-out: Tmax) of 2.35 h. The Cmax ([4]; human, in vivo, po, 50 mg, Cohort 1, Day 10, 50 mg QD SoftGel oral, fasted, multiple dose, Mean, read-out: Cmax) was 9.71 ng/mL, the Tmax ([4]; human, in vivo, po, 50 mg, Cohort 1, Day 10, 50 mg QD SoftGel oral, fasted, multiple dose, Mean, read-out: Tmax) was 2.69 h and the Cmax ([4]; human, in vivo, po, 50 mg, Cohort 1, Day 10, 50 mg QD SoftGel oral, fasted, multiple dose, Median, read-out: Cmax) was 4.7 ng/mL. It also gave a Tmax ([4]; human, in vivo, po, 50 mg, Cohort 1, Day 10, 50 mg QD SoftGel oral, fasted, multiple dose, Median, read-out: Tmax) of 2 h, a Cmax ([4]; human, in vivo, po, 50 mg, Cohort 1, Day 14, 50 mg QD SoftGel oral, fed (moderate fat meal), multiple dose, Geometric Mean, read-out: Cmax) of 1.62 ng/mL and a Tmax ([4]; human, in vivo, po, 50 mg, Cohort 1, Day 14, 50 mg QD SoftGel oral, fed (moderate fat meal), multiple dose, Geometric Mean, read-out: Tmax) of 3.63 h. The Tmax ([4]; human, in vivo, po, 50 mg, Cohort 1, Day 14, 50 mg QD SoftGel oral, fed (moderate fat meal), multiple dose, Mean, read-out: Tmax) was 3.78 h, the Cmax ([4]; human, in vivo, po, 50 mg, Cohort 1, Day 14, 50 mg QD SoftGel oral, fed (moderate fat meal), multiple dose, Median, read-out: Cmax) was 1.48 ng/mL and the “lowest fully effective dose” value [5] was 10 mg.
